Results from PubChem BioAssay (NCI).
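Method: 48-hour compound exposure of cells in 96-well plates, five concentrations, linear interpolation of endpoints. The concentration for 50% growth inhibition is given as GI50. TGI: concentration producing complete growth inhibition.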

How the values were obtained:
Assay in all cases: NCI tumour cell line growth inhibition, 48 h
SK-MEL-2 melanoma = tested on: SK-MEL-2 melanoma
SNB-19 CNS = tested on: SNB-19 CNS
TK-10 renal = tested on: TK-10 renal
MDA-MB-435 = tested on: MDA-MB-435
ACHN renal = tested on: ACHN renal
OVCAR-5 ovarian = tested on: OVCAR-5 ovarian
UO-31 renal = tested on: UO-31 renal
CAKI-1 renal = tested on: CAKI-1 renal
HCT-15 colon = tested on: HCT-15 colon
OVCAR-8 ovarian = tested on: OVCAR-8 ovarian
SK-OV-3 ovarian = tested on: SK-OV-3 ovarian
RXF 393 renal = tested on: RXF 393 renal
UACC-62 melanoma = tested on: UACC-62 melanoma
T-47D breast = tested on: T-47D breast
HCC-2998 colon = tested on: HCC-2998 colon
U251 CNS = tested on: U251 CNS
NCI-H522 lung = tested on: NCI-H522 lung
NCI-H460 lung = tested on: NCI-H460 lung
SF-268 CNS = tested on: SF-268 CNS
CCRF-CEM leukemia = tested on: CCRF-CEM leukemia
MCF7 breast = tested on: MCF7 breast
MDA-MB-231 breast = tested on: MDA-MB-231 breast
HOP-92 NSCLC = tested on: HOP-92 NSCLC
SR leukemia = tested on: SR leukemia
NCI/ADR-RES ovarian = tested on: NCI/ADR-RES ovarian
HOP-62 NSCLC = tested on: HOP-62 NSCLC
HT29 colon = tested on: HT29 colon
EKVX NSCLC = tested on: EKVX NSCLC
UACC-257 melanoma = tested on: UACC-257 melanoma
HL-60(TB) leukemia = tested on: HL-60(TB) leukemia
M14 melanoma = tested on: M14 melanoma
SN12C renal = tested on: SN12C renal
A549 NSCLC = tested on: A549 NSCLC
A498 renal = tested on: A498 renal
HS 578T breast = tested on: HS 578T breast
786-0 renal = tested on: 786-0 renal
SF-295 CNS = tested on: SF-295 CNS
MALME-3M melanoma = tested on: MALME-3M melanoma
IGROV1 ovarian = tested on: IGROV1 ovarian
K-562 leukemia = tested on: K-562 leukemia
NCI-H226 lung = tested on: NCI-H226 lung
OVCAR-4 ovarian = tested on: OVCAR-4 ovarian
PC-3 prostate = tested on: PC-3 prostate
MOLT-4 leukemia = tested on: MOLT-4 leukemia
NCI-H23 lung = tested on: NCI-H23 lung
SK-MEL-5 melanoma = tested on: SK-MEL-5 melanoma
SK-MEL-28 melanoma = tested on: SK-MEL-28 melanoma

What does the source list for `CC1(C)CC[C@]2(C(=O)Nc3ccccn3)CC[C@]3(C)C(=CC[C@@H]4[C@@]5(C)C/C(=C/c6ccncc6)C(=O)C(C)(C)[C@@H]5CC[C@]43C)[C@@H]2C1`?
GI50 (SK-MEL-2 melanoma): 3.63 µM; TGI (SK-MEL-2 melanoma): > 100 µM; GI50 (SNB-19 CNS): 5.82 µM; TGI (SNB-19 CNS): > 100 µM; GI50 (TK-10 renal): 5.75 µM; TGI (TK-10 renal): > 100 µM; GI50 (MDA-MB-435): 2.58 µM; TGI (MDA-MB-435): > 100 µM; GI50 (ACHN renal): 2.08 µM; TGI (ACHN renal): 5.98 µM; GI50 (OVCAR-5 ovarian): 4.14 µM; TGI (OVCAR-5 ovarian): > 100 µM; GI50 (UO-31 renal): 1.38 µM; TGI (UO-31 renal): 2.74 µM; GI50 (CAKI-1 renal): 2.69 µM; TGI (CAKI-1 renal): > 100 µM; GI50 (HCT-15 colon): 1.85 µM; TGI (HCT-15 colon): 6.63 µM; GI50 (OVCAR-8 ovarian): 3.76 µM; TGI (OVCAR-8 ovarian): > 100 µM; GI50 (SK-OV-3 ovarian): > 100 µM; TGI (SK-OV-3 ovarian): > 100 µM; GI50 (RXF 393 renal): 1.67 µM; TGI (RXF 393 renal): 3.37 µM; GI50 (UACC-62 melanoma): 1.85 µM; TGI (UACC-62 melanoma): 8.89 µM; GI50 (T-47D breast): 1.68 µM; TGI (T-47D breast): > 100 µM; GI50 (HCC-2998 colon): 1.81 µM; TGI (HCC-2998 colon): 4.82 µM; GI50 (U251 CNS): 1.82 µM; TGI (U251 CNS): 4.32 µM; GI50 (NCI-H522 lung): 2.09 µM; TGI (NCI-H522 lung): 27.7 µM; GI50 (NCI-H460 lung): 1.51 µM; TGI (NCI-H460 lung): 3.9 µM; GI50 (SF-268 CNS): 9.45 µM; TGI (SF-268 CNS): > 100 µM; GI50 (CCRF-CEM leukemia): 2.3 µM; TGI (CCRF-CEM leukemia): > 100 µM; GI50 (MCF7 breast): 0.938 µM; TGI (MCF7 breast): 15.3 µM; GI50 (MDA-MB-231 breast): 2.92 µM; TGI (MDA-MB-231 breast): 19.5 µM; GI50 (HOP-92 NSCLC): 1.24 µM; TGI (HOP-92 NSCLC): 7 µM; GI50 (SR leukemia): 0.702 µM; TGI (SR leukemia): > 100 µM; GI50 (NCI/ADR-RES ovarian): 4.48 µM; TGI (NCI/ADR-RES ovarian): > 100 µM; GI50 (HOP-62 NSCLC): 4.41 µM; TGI (HOP-62 NSCLC): > 100 µM; GI50 (HT29 colon): 2.17 µM; TGI (HT29 colon): > 100 µM; GI50 (EKVX NSCLC): 3.8 µM; TGI (EKVX NSCLC): > 100 µM; GI50 (UACC-257 melanoma): 2.2 µM; TGI (UACC-257 melanoma): > 100 µM; GI50 (HL-60(TB) leukemia): 1.24 µM; TGI (HL-60(TB) leukemia): 5.68 µM; GI50 (M14 melanoma): 2.85 µM; TGI (M14 melanoma): > 100 µM; GI50 (SN12C renal): 2.57 µM; TGI (SN12C renal): > 100 µM; GI50 (A549 NSCLC): 2 µM; TGI (A549 NSCLC): > 100 µM; GI50 (A498 renal): 2.05 µM; TGI (A498 renal): 5.18 µM; GI50 (HS 578T breast): 2.96 µM; TGI (HS 578T breast): > 100 µM; GI50 (786-0 renal): 2.88 µM; TGI (786-0 renal): > 100 µM; GI50 (SF-295 CNS): 2.37 µM; TGI (SF-295 CNS): 29.3 µM; GI50 (MALME-3M melanoma): 2.25 µM; TGI (MALME-3M melanoma): 6.15 µM; GI50 (IGROV1 ovarian): 3.12 µM; TGI (IGROV1 ovarian): 67.3 µM; GI50 (K-562 leukemia): 1.78 µM; TGI (K-562 leukemia): > 100 µM; GI50 (NCI-H226 lung): 1.97 µM; TGI (NCI-H226 lung): 6.04 µM; GI50 (OVCAR-4 ovarian): 2.9 µM; TGI (OVCAR-4 ovarian): > 100 µM; GI50 (PC-3 prostate): 0.624 µM; TGI (PC-3 prostate): > 100 µM; GI50 (MOLT-4 leukemia): 2.27 µM; TGI (MOLT-4 leukemia): > 100 µM; GI50 (NCI-H23 lung): 3.18 µM; TGI (NCI-H23 lung): > 100 µM; GI50 (SK-MEL-5 melanoma): 1.59 µM; TGI (SK-MEL-5 melanoma): 3.1 µM; GI50 (SK-MEL-28 melanoma): 2.28 µM; TGI (SK-MEL-28 melanoma): 6.59 µM
